Strand notation (5' to 3'): a small letter for the sugar, then the base; units joined by * are phosphorothioate-linked, units joined directly phosphodiester-linked; [ ] holds rarer units or linkages, { } end groups; capitals alone tell only the bases. m = 2'-O-methyl; r = 2'-OH (RNA)
Assays:
[1] = test system: HBB gene locus and mRNA transcribed from HBB in CD34+ HSPCs; test: Editing efficiency in genomic DNA and in HBB mRNA (Example 5); assay type: cell-based, human; conditions: genomic DNA, 48 hours post electroporation; 1 μM or 3 μM
Experimental: At 48 hours post electroporation genomic DNA was isolated from the edited cells and HDR to introduce the sickle mutation and INDEL frequencies were evaluated using next gene sequencing and computational analysis. On day 10 of differentiation, incorporation of the SCD mutation and frequency of INDELs present in mRNA transcribed from the HBB gene locus of edited cells was determined using RNA amplicon sequencing.

[2] = test system: HBB gene locus in CD34+ HSPCs; test: HDR efficiency with DNA-PK inhibitors for editing the HBB gene in CD34+ HSPCs; NGS (Example 4); assay type: cell-based, human; conditions: for % HDR / % INDELs: 48 hours
Experimental: The cells were transduced with AAV donor template for 1 hour at 37° C. prior to electroporation. AAV-encoded homology donor template referred to as “AAV.310”, which is identified by sequence in Table 8. The AAV.310 donor template encodes a SCD mutation, specifically valine at the 6th codon downstream the HBB start codon (E6V). The cells were treated with AAV at a dose of 10,000 MOI.
Edited cells were evaluated for viability using trypan blue, and for incorporation of gene-edits at 2 days post-electroporation. The efficiency of HDR repair for introducing an E6V mutation in the HBB gene was quantified by NGS assay as described in Example 1, and the frequency of INDELs induced at the T107 cut site was also evaluated by NGS analysis.
The INDELs species identified in edited cells were further evaluated to determine frequency of repair by NHEJ or MMEJ repair pathways. An INDEL of ±1 nt was considered due to NHEJ repair; a deletion of −9 nt was considered due to MMEJ repair based on the microhomology present on either side of the T107 cut site. Based on percentage of total reads corresponding to these INDEL species, the ratio of gene edits due to NHEJ and MMEJ repair was evaluated. […] Thus, reduced frequency of INDELs with treatment of compound 296 or i53 is largely due to suppression of the NHEJ repair pathway.

[3] = test system: CD34+ HSPCs; test: Erythrocyte functionality: enucleation and cell-surface markers by flow cytometry (Example 5); assay type: cell-based, human; conditions: T107 RNP+AAV.310 alone or combined with the inhibitor
Experimental: (§1) Following editing, cells were differentiated to erythrocytes.
The ability of edited cells to differentiate to functional erythrocytes was assessed by determining expression of erythrocyte-associated cell surface markers and enucleation using flow cytometry on day 12 and 18 post editing. Briefly, 4×10^5 cells were obtained, and half were stained for erythrocyte cell-surface markers and half were used for detection of enucleation. For staining cell-surface markers, the cells were incubated in PBS containing 1% human serum albumin (PBS-A) and an antibody cocktail of anti-CD233(BRIC6-Band3)-FITC, anti-CD71-PE, anti-CD235a(GlyA)-PE/Cy7, and anti-CD49d (α4)-VioBlue. For detection of enucleation, 2 drops of NucRed nuclear staining reagent was added to 1 mL PBS-A, and 100 μL was added to plated cells. Following incubation, both cell samples were labeled with Sytox Blue solution (1:1000 dilution in PBS-A) for live/dead analysis. Samples were then assessed by flow cytometry

[4] = test system: CD34+ HSPCs; test: Cell growth and viability (trypan blue) of edited CD34+ HSPCs during differentiation (Example 5); conditions: day 0 to day 18 post-editing; inhibitor 1 or 3 μM, i53 1 μg mRNA; data not shown
Experimental: Briefly, frozen CD34+ HSPCs isolated from Plerixafor mobilized peripheral blood, obtained from healthy human donors were thawed. The cells were seeded in CD34 cell media at a cell density of 2×10^5 cells/mL. Cells were cultured at 37° C. under normoxic conditions (i.e., oxygen 20%). Gene-editing was performed following two days of in vitro culture. For editing, 5×10^5 CD34+ HSPCs were electroporated with RNP containing 200 μg/ml Cas9 and 200 μg/ml T107 sgRNA. […] The cells were transduced with AAV.310, 1 hour prior to electroporation, at a dose of 10,000 MOI. The cells were plated in CD34 cell medium containing Compound 296 or Compound 984 immediately following the electroporation, at a concentration of 1 μM or 3 μM for 48 hours. […] Post electroporation cells were resuspended in CD34 cell medium at a density of 2-5×10^5 cells/ml and incubated at 37° C. for 48 hours.
Following editing, cells were differentiated to erythrocytes. Briefly, cells were plated in fresh CD34 media at a density of 2×10^5 cells/mL, and re-plated at similar density in fresh CD34 media on days 3 and 5 post-editing. On day 7 and 10 post-editing, the cells were incubated in Phase II media at a density of 2.5×10^5 and 1×10^6 cells/mL respectively. On day 12 post-editing, the cells were incubated in Phase III media at a density of 1×10^6 cells/mL. On day 14 cells were plated at a density of 2×10^6 cells/ml in Phase III media and maintained till day 18 at 37° C. Cell growth was measured at various time points between day 0 and day 18 post-editing, and the percentage of viable cells was measured by staining with tryphan blue.

[5] = test system: CD34+ HSPCs; test: Globin and hemoglobin analysis by HPLC on day 18 of differentiation (Example 5); assay type: cell-based, human; conditions: T107 RNP+AAV.310 alone or combined with the inhibitor
Experimental: as §1
Additionally, on day 18 post-editing, expression of globin monomers was assessed in differentiated cells by HPLC as described in Example 3. […] Accordingly, the editing was sufficient to both introduce the SCD mutation in HBB and result in expression of sickle globin.
Furthermore, production of hemoglobin tetramers was also evaluated by HPLC. The analysis included quantification of HbS tetramer containing sickle-globin (α2β(E6V)2), HbF tetramer (α2γ2), HbA (α2β2), and HbA2 (α2δ2) produced by edited cells. […] Thus, the editing was also sufficient to alter hemoglobin output following in vitro differentiation.

[6] = test system: genomic sites undergoing off-target cleavage; test: GUIDE-Seq screen of candidate off-target sites; assay type: cell-based, human
Text: The second approach was to screen candidate off-target sites using GUIDE-Seq (see, e.g., Tsai et al (2015) NAT. BIOTECHNOL. 33:187). Based on this approach, the following number of genomic sites were identified as undergoing off-target cleavage per each gRNA: • (i) 36 GUIDE-Seq off-target sites for R02 gRNA; • (ii) 12 GUIDE-Seq off-target sites for […]; and • (iii) 43 GUIDE-Seq off-target sites for T223 gRNA.

[7] = test system: HBB gene in CD34+ HSPCs; test: Comparison of guides targeting intron 1 of HBB with AAV donor templates (Example 8); assay type: cell-based, human; conditions: with each of AAV.309, AAV.310, AAV.311; day 2 post-editing
Experimental: Healthy donor CD34+ HSPCs derived from plerixafor-mobilized peripheral blood were cultured as described in Example 1 for two days prior to editing. Editing was performed using 1×10^6 CD34+ HSPCs per treatment group. The cells were electroporated with RNP containing the following 20 μg SpCas9 and 20 μg T107 sgRNA, 20 μg T223 sgRNA, or 20 μg R02 sgRNA. […] The cells were transduced with AAV6 donor templates encoding a SCD mutation (AAV.309; AAV.310; AAV.311) by incubating the cells with AAV at a dose of 10,000 MOI for one hour prior to electroporation. Control cells were transduced with AAV only and electroporated in the absence of RNP.
On day 2 post-editing, the efficiency of HDR repair for inducing a SCD mutation in the HBB gene was quantified by NGS assay as described in Example 1.

[8] = T107 RNP + AAV.310 + 0.012 μM compound
[9] = T107 RNP + AAV.310 + 0.037 μM compound
[10] = T107 RNP + AAV.310 + 0.04 μM compound
[11] = T107 RNP + AAV.310 + 3.3 μM compound
[12] = T107 RNP + AAV.310 + 10 μM compound

**Q.** Which “frequency of INDELs at the T107 cut site compared to cells edited with T107 RNP+AAV.310 only” value [1] does the source give for CNC(=O)c1ccnc2c([C@H](C)CNc3cc(-c4cnc(C)nc4)ncn3)cccc12 [Compound 296] here?
**A.** The value was “decreased”.

**Q.** What about the “level of HDR repair compared to cells edited with T107 RNP+AAV.310 only” value [1] of the same molecule?
**A.** Its value is “increased”.

**Q.** What about the “% HDR” value [2, 8] of the same molecule?
**A.** Its value is 40%.

**Q.** What about the “% INDELs” value [2, 8] of the same molecule?
**A.** The value was 45%.

**Q.** And the “% HDR” value [2, 9]?
**A.** Its value is 39%.

**Q.** What about the “% INDELs” value [2, 9] of the same molecule?
**A.** Its value is 46%.

**Q.** What about the “% HDR” value [2, 10] of the same molecule?
**A.** The value was 40%.

**Q.** And the “% INDELs” value [2, 10]?
**A.** Its value is 42%.

**Q.** What about the “% HDR” value [2, 11] of the same molecule?
**A.** Its value is 55%.

**Q.** What about the “% INDELs” value [2, 11] of the same molecule?
**A.** The value was 27%.

**Q.** And the “% HDR” value [2, 12]?
**A.** Its value is 57%.

**Q.** What about the “% INDELs” value [2, 12] of the same molecule?
**A.** Its value is 25%.

**Q.** And the “reduction of the frequency of INDELs at the T107 cut site compared to control cells” value ([2]; T107 RNP+AAV.310 with DNA-PK inhibitor)?
**A.** The value was “approximately 1.6 fold”.

**Q.** And the “INDEL species due to MMEJ repair (deletion of −9 nt)” value ([2]; T107 RNP+AAV.310, Compound 296 at 10 μM, i53 at 1 μg mRNA)?
**A.** Its value is “no substantial reduction”.

**Q.** And the “decrease in INDELs due to NHEJ repair (INDEL of ±1 nt)” value ([2]; T107 RNP+AAV.310, Compound 296 at 10 μM, i53 at 1 μg mRNA, vs DMSO)?
**A.** Its value is at most 3 fold.

**Q.** What about the “levels of enucleation vs control cells” value [3] of the same molecule?
**A.** The value was “comparable”.

**Q.** And the “cell growth over time or percent viability vs T107 RNP+AAV.310 edited cells” value [4]?
**A.** Its value is “No difference”.

**Q.** What about the “HbA production compared to control cells” value [5] of the same molecule?
**A.** Its value is “decreased”.

**Q.** What about the “HbS production compared to control cells” value [5] of the same molecule?
**A.** The value was “increased”.

**Q.** What about the “expression of sickle-globin compared to control cells” value [5] of the same molecule?
**A.** Its value is “increased”.

B1: R02 gRNA: exon-targeting gRNA for exon 1 of HBB, spacer SEQ ID NO: 14, sgRNA SEQ ID NO: 15 (nucleic acid)
guide: mC*mU*mU*rGrCrCrCrCrArCrArGrGrGrCrArGrUrArArGrUrUrUrUrArGrArGrCrUrArGrArArArUrArGrCrArArGrUrUrArArArArUrArArGrGrCrUrArGrUrCrCrGrUrUrArUrCrArArCrUrUrGrArArArArArGrUrGrGrCrArCrCrGrArGrUrCrGrGrUrGrCmU*mU*mU*rU
**Q.** Which “GUIDE-Seq off-target sites (number)” value [6] does the source give for B1 here?
**A.** Its value is 36.

B2: T107 gRNA: intron-targeting gRNA, spacer SEQ ID NO: 3, sgRNA SEQ ID NO: 4 (nucleic acid)
guide: mU*mC*mC*rArCrArUrGrCrCrCrArGrUrUrUrCrUrArUrGrUrUrUrUrArGrArGrCrUrArGrArArArUrArGrCrArArGrUrUrArArArArUrArArGrGrCrUrArGrUrCrCrGrUrUrArUrCrArArCrUrUrGrArArArArArGrUrGrGrCrArCrCrGrArGrUrCrGrGrUrGrCmU*mU*mU*rU
**Q.** How did the “GUIDE-Seq off-target sites (number)” value [6] turn out when B2 was run?
**A.** The value was 12.

**Q.** And the “levels of HDR for introducing the SCD mutation” value [7]?
**A.** The value was “similar”.

B3: T223 gRNA: intron-targeting gRNA, spacer SEQ ID NO: 51, sgRNA SEQ ID NO: 52 (nucleic acid)
guide: mU*mA*mA*rGrGrArGrArCrCrArArUrArGrArArArCrUrGrUrUrUrUrArGrArGrCrUrArGrArArArUrArGrCrArArGrUrUrArArArArUrArArGrGrCrUrArGrUrCrCrGrUrUrArUrCrArArCrUrUrGrArArArArArGrUrGrGrCrArCrCrGrArGrUrCrGrGrUrGrCmU*mU*mU*rU
**Q.** Which “GUIDE-Seq off-target sites (number)” value [6] does the source give for B3 here?
**A.** Its value is 43.

**Q.** And the “levels of HDR for introducing the SCD mutation” value [7]?
**A.** Its value is “similar”.

From US12497614B2, “Compositions and methods for editing beta-globin for treatment of hemaglobinopathies” (Vertex Pharmaceuticals Incorporated, priority 2020, dated 2025)
